# US9695155B2, “Herbicidal substituted pyrimidinyloxy benzene compounds” (E. I. DU PONT DE NEMOURS AND COMPANY, priority 2013, dated 2017)
# Legend:
# Heteranthera limosa = test: Test B flooded paddy test; assay type: in vivo; conditions: Flood, 250 g ai/ha, 0 to 100 scale where 0 is no effect and 100 is complete control
# Summary of the method: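 Post-emergence paddy-water application at the 2-leaf stage, with 3 cm flood kept for the whole test. Response was judged visually relative to controls after 13 to 15 greenhouse days, 0 indicating no effect and 100 complete control.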
# wheat, winter = test: Test C preemergence; assay type: in vivo, Triticum aestivum
# Source text: (§1) Seeds of plant species selected from blackgrass (Alopecurus myosuroides), Italian ryegrass (Lolium multiflorum), wheat, winter (winter wheat, Triticum aestivum), galium (catchweed bedstraw, Galium aparine), corn (Zea mays), large (Lg) crabgrass (Digitaria sanguinalis), giant foxtail (Setaria faberii), johnsongrass (Sorghum halepense), lambsquarters (Chenopodium album), morningglory (Ipomoea coccinea), yellow nutsedge (Cyperus esculentus), pigweed (Amaranthus retroflexus), ragweed (common ragweed, Ambrosia elatior), soybean (Glycine max), barnyardgrass (Echinochloa crus-galli), oilseed rape (Brassica napus), waterhemp (common waterhemp, Amaranthus rudis), kochia (Kochia scoparia), wild oat (Avena fatua), surinam grass (Brachiaria decumbens), foxtail, green (green foxtail, Setaria viridis), goosegrass (Eleusine indica), bromegrass, downy (downy bromegrass, Bromus tectorum), nightshade (eastern black nightshade, Solanum ptycanthum), cocklebur (common cocklebur, Xanthium strumarium), cupgrass, woolly (woolly cupgrass, Eriochloa villosa), bermudagrass (Cynodon dactylon), sunflower, (common oilseed sunflower, Helianthus annuus), Russian thistle (Salsola kali), and velvetleaf (Abutilon theophrasti) were planted into a blend of loam soil and sand and treated preemergence with test chemicals formulated in a non-phytotoxic solvent mixture which included a surfactant.
# (§2) At the same time, plants selected from these crop and weed species and also barley, winter (winter barley, Hordeum vulgare), windgrass (Apera spica-venti), chickweed (common chickweed, Stellaria media), deadnettle (henbit deadnettle, Lamium amplexicaule), and canarygrass (littleseed canarygrass, Phalaris minor) were planted in pots containing Redi-Earth® planting medium (Scotts Company, 14111 Scottslawn Road, Marysville, Ohio 43041) comprising spaghnum peat moss, vermiculite, wetting agent and starter nutrients and treated with postemergence applications of test chemicals formulated in the same manner. Plants ranged in height from 2 to 18 cm (1- to 4-leaf stage) for postemergence treatments. Treated plants and controls were maintained in a greenhouse for 13 to 15 days, after which time all species were compared to controls and visually evaluated. Plant response ratings, summarized in Table C, are based on a scale of 0 to 100 where 0 is no effect and 100 is complete control. A dash (-) response means no test result.
# lambsquarters = test: Test C preemergence; assay type: in vivo, Chenopodium album
# Source text: as §1, §2
# giant foxtail [1] = test: Test A postemergence; assay type: in vivo, Setaria faberii
# Summary of the method: (§3)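 Pre- and postemergence greenhouse screen. Soil: loam + sand. Spray carrier: solvent mixture, non-phytotoxic, with surfactant. Post timing at 1–2 leaves, height 2–10 cm. Readout: visual injury on a 0–100 scale roughly 10 days after application, untreated plants as reference.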
# giant foxtail [2] = test: Test A preemergence; assay type: in vivo, Setaria faberii
# Summary of the method: as §3
# Italian ryegrass = test: Test C preemergence; assay type: in vivo, Lolium multiflorum
# Summary of the method: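 Rated visually on 0–100 (100 = complete control) after 13–15 days under glass. Treatments went onto freshly seeded loam/sand soil or onto emerged plants at the 1- to 4-leaf stage, using a surfactant-containing solvent formulation.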
# barnyardgrass [3] = test: Test C preemergence; assay type: in vivo, Echinochloa crus-galli
# Source text: as §1, §2
# blackgrass = test: Test C preemergence; assay type: in vivo, Alopecurus myosuroides
# Source text: as §1, §2
# velvetleaf = test: Test C preemergence; assay type: in vivo, Abutilon theophrasti
# Source text: as §1, §2
# barnyardgrass [4] = test: Test A postemergence; assay type: in vivo, Echinochloa crus-galli
# Summary of the method: as §3
# pigweed = test: Test A postemergence; assay type: in vivo, Amaranthus retroflexus
# Summary of the method: as §3
# [5] = 16 g ai/ha, preemergence, scale 0 to 100 (0 no effect, 100 complete control)
# [6] = 62 g ai/ha, preemergence, scale 0 (no effect) to 100 (complete control)
# [7] = 125 g ai/ha, preemergence, scale 0 (no effect) to 100 (complete control)
# [8] = 125 g ai/ha, 0 to 100 scale where 0 is no effect and 100 is complete control
# [9] = 500 g ai/ha, 0 to 100 scale where 0 is no effect and 100 is complete control
# [10] = Preemergence, 31 g ai/ha, scale 0 to 100, 0 no effect, 100 complete control
structure (smiles),measurement,setting,value
COc1cnn(-c2c(C#N)cccc2Oc2ncc(Cl)cn2)c1 [Compound 137],"Plant response rating, Ducksalad",Heteranthera limosa,30
same,Wheat plant response rating,"wheat, winter; [5]",0
same,Wheat plant response rating,"wheat, winter; [6]",0
same,Wheat plant response rating,"wheat, winter; [7]",0
same,Lambsquarters plant response rating,lambsquarters; [5],100
same,Lambsquarters plant response rating,lambsquarters; [6],100
same,Lambsquarters plant response rating,lambsquarters; [7],100
same,"Foxtail, Giant plant response rating",giant foxtail [1]; [8],70
same,"Plant response rating, Foxtail, Giant",giant foxtail [1]; [9],100
same,"Plant response rating, Foxtail, Giant",giant foxtail [2]; [8],90
same,"Foxtail, Giant plant response rating",giant foxtail [2]; [9],100
same,"Ryegrass, Italian plant response rating",Italian ryegrass; [5],0
same,"Ryegrass, Italian plant response rating",Italian ryegrass; [6],0
same,"Ryegrass, Italian plant response rating",Italian ryegrass; [7],0
same,Barnyardgrass plant response rating,barnyardgrass [3]; [5],0
same,Barnyardgrass plant response rating,barnyardgrass [3]; [6],10
same,Barnyardgrass plant response rating,barnyardgrass [3]; [7],40
same,"Plant response rating, Barnyardgrass",barnyardgrass [3]; [10],5
same,Blackgrass plant response rating,blackgrass; [5],0
same,Blackgrass plant response rating,blackgrass; [6],5
same,Blackgrass plant response rating,blackgrass; [7],10
same,"Plant response rating, Blackgrass",blackgrass; [10],0
same,Velvetleaf plant response rating,velvetleaf; [5],40
same,Velvetleaf plant response rating,velvetleaf; [6],65
same,Velvetleaf plant response rating,velvetleaf; [7],85
same,Barnyardgrass plant response rating,barnyardgrass [4]; [8],0
same,"Plant response rating, Barnyardgrass",barnyardgrass [4]; [9],100
same,Pigweed plant response rating,pigweed; [8],70
same,"Plant response rating, Pigweed",pigweed; [9],100
"N#Cc1cccc(Oc2ncc(Cl)cn2)c1-n1cnc(C(F)(F)F)c1 [Compound 252, 3-[(5-chloro-2-pyrimidinyl)oxy]-2-[4-(trifluoromethyl)-1H-imidazol-1-yl]benzonitrile]",pest or weed control at 250 g/ha,"Heteranthera limosa; Heteranthera limosa, read-out: Plant response rating, Ducksalad",75%
same,plant injury at 16 g/ha,"wheat, winter; Triticum aestivum, pre-emergence, 16 g ai/ha, preemergence, scale 0 to 100 (0 no effect, 100 complete control), read-out: Wheat plant response rating",0%
same,plant injury at 125 g/ha,"wheat, winter; Triticum aestivum, pre-emergence, 125 g ai/ha, preemergence, scale 0 (no effect) to 100 (complete control), read-out: Wheat plant response rating",45%
same,plant injury at 62 g/ha,"wheat, winter; Triticum aestivum, pre-emergence, Preemergence, 62 g ai/ha, scale 0 to 100, 0 no effect, 100 complete control, read-out: Plant response rating, Wheat",0%
same,pest or weed control at 16 g/ha,"lambsquarters; Chenopodium album, pre-emergence, 16 g ai/ha, preemergence, scale 0 to 100 (0 no effect, 100 complete control), read-out: Lambsquarters plant response rating",98%
same,pest or weed control at 125 g/ha,"lambsquarters; Chenopodium album, pre-emergence, 125 g ai/ha, preemergence, scale 0 (no effect) to 100 (complete control), read-out: Lambsquarters plant response rating",100%
same,pest or weed control at 62 g/ha,"lambsquarters; Chenopodium album, pre-emergence, Preemergence, 62 g ai/ha, scale 0 to 100, 0 no effect, 100 complete control, read-out: Plant response rating, Lambsquarters",100%
same,pest or weed control at 31 g/ha,"giant foxtail [1]; Setaria faberi, post-emergence, 240 h, 31 g ai/ha, 0 to 100 scale, 0 no effect, 100 complete control, read-out: Plant response rating, Foxtail, Giant",20%
same,pest or weed control at 125 g/ha,"giant foxtail [1]; Setaria faberi, post-emergence, 240 h, 125 g ai/ha, 0 to 100 scale, 0 no effect, 100 complete control, read-out: Plant response rating, Foxtail, Giant",100%
same,pest or weed control at 500 g/ha,"giant foxtail [1]; Setaria faberi, post-emergence, 240 h, 500 g ai/ha, 0 to 100 scale where 0 is no effect and 100 is complete control, read-out: Plant response rating, Foxtail, Giant",100%
same,"Foxtail, Giant plant response rating (0 to 100 scale)",giant foxtail [2]; 125 g ai/ha,100
same,pest or weed control at 31 g/ha,"giant foxtail [2]; Setaria faberi, pre-emergence, 240 h, 31 g ai/ha, 0 to 100 scale where 0 is no effect and 100 is complete control, visual, approximately 10 days, read-out: Plant response rating, Foxtail, Giant",70%
same,pest or weed control at 500 g/ha,"giant foxtail [2]; Setaria faberi, pre-emergence, 240 h, 500 g ai/ha, 0 to 100 scale where 0 is no effect and 100 is complete control, read-out: Foxtail, Giant plant response rating",100%
same,pest or weed control at 16 g/ha,"Italian ryegrass; Lolium multiflorum, pre-emergence, 16 g ai/ha, preemergence, scale 0 to 100 (0 no effect, 100 complete control), read-out: Ryegrass, Italian plant response rating",0%
same,pest or weed control at 125 g/ha,"Italian ryegrass; Lolium multiflorum, pre-emergence, 125 g ai/ha, preemergence, scale 0 (no effect) to 100 (complete control), read-out: Ryegrass, Italian plant response rating",90%
same,pest or weed control at 62 g/ha,"Italian ryegrass; Lolium multiflorum, pre-emergence, Preemergence, 62 g ai/ha, scale 0 to 100, 0 no effect, 100 complete control, read-out: Plant response rating, Ryegrass, Italian",60%
same,pest or weed control at 16 g/ha,"barnyardgrass [3]; Echinochloa crus-galli, pre-emergence, 16 g ai/ha, preemergence, scale 0 to 100 (0 no effect, 100 complete control), read-out: Barnyardgrass plant response rating",10%
same,pest or weed control at 125 g/ha,"barnyardgrass [3]; Echinochloa crus-galli, pre-emergence, 125 g ai/ha, preemergence, scale 0 (no effect) to 100 (complete control), read-out: Barnyardgrass plant response rating",100%
same,pest or weed control at 62 g/ha,"barnyardgrass [3]; Echinochloa crus-galli, pre-emergence, Preemergence, 62 g ai/ha, scale 0 to 100, 0 no effect, 100 complete control, read-out: Plant response rating, Barnyardgrass",100%
same,pest or weed control at 16 g/ha,"blackgrass; Alopecurus myosuroides, pre-emergence, 16 g ai/ha, preemergence, scale 0 to 100 (0 no effect, 100 complete control), read-out: Blackgrass plant response rating",10%
same,pest or weed control at 125 g/ha,"blackgrass; Alopecurus myosuroides, pre-emergence, 125 g ai/ha, preemergence, scale 0 (no effect) to 100 (complete control), read-out: Blackgrass plant response rating",95%
same,pest or weed control at 62 g/ha,"blackgrass; Alopecurus myosuroides, pre-emergence, Preemergence, 62 g ai/ha, scale 0 to 100, 0 no effect, 100 complete control, read-out: Plant response rating, Blackgrass",90%
same,pest or weed control at 16 g/ha,"velvetleaf; Abutilon theophrasti, pre-emergence, 16 g ai/ha, preemergence, scale 0 to 100 (0 no effect, 100 complete control), read-out: Velvetleaf plant response rating",75%
same,pest or weed control at 125 g/ha,"velvetleaf; Abutilon theophrasti, pre-emergence, 125 g ai/ha, preemergence, scale 0 (no effect) to 100 (complete control), read-out: Velvetleaf plant response rating",100%
same,pest or weed control at 62 g/ha,"velvetleaf; Abutilon theophrasti, pre-emergence, Preemergence, 62 g ai/ha, scale 0 to 100, 0 no effect, 100 complete control, read-out: Plant response rating, Velvetleaf",100%
same,pest or weed control at 31 g/ha,"barnyardgrass [4]; Echinochloa crus-galli, post-emergence, 240 h, 31 g ai/ha, 0 to 100 scale, 0 no effect, 100 complete control, read-out: Plant response rating, Barnyardgrass",20%
same,pest or weed control at 125 g/ha,"barnyardgrass [4]; Echinochloa crus-galli, post-emergence, 240 h, 125 g ai/ha, 0 to 100 scale, 0 no effect, 100 complete control, read-out: Plant response rating, Barnyardgrass",100%
same,pest or weed control at 500 g/ha,"barnyardgrass [4]; Echinochloa crus-galli, post-emergence, 240 h, 500 g ai/ha, 0 to 100 scale where 0 is no effect and 100 is complete control, read-out: Plant response rating, Barnyardgrass",100%
same,pest or weed control at 31 g/ha,"pigweed; Amaranthus retroflexus, post-emergence, 31 g ai/ha, 0 to 100 scale, 0 no effect, 100 complete control, read-out: Plant response rating, Pigweed",80%
same,pest or weed control at 125 g/ha,"pigweed; Amaranthus retroflexus, post-emergence, 125 g ai/ha, 0 to 100 scale, 0 no effect, 100 complete control, read-out: Plant response rating, Pigweed",100%
same,pest or weed control at 500 g/ha,"pigweed; Amaranthus retroflexus, post-emergence, 500 g ai/ha, 0 to 100 scale where 0 is no effect and 100 is complete control, read-out: Plant response rating, Pigweed",100%
